Results published in US12661355B2, “Compounds and methods for inducing UCP1 expression” (The Regents of the University of California, priority 2020, dated 2026).

How the values were obtained:
[1] = tested on: UCP1; experiment: Gene expression in immortalized human brown adipocytes; type: cell-based; settings: 10 μM for 4 days
Method: (§1) Human immortalized brown and white preadipocytes were obtained from Dr. Yu-Hua Tseng (Joslin Diabetes Center, Harvard Medical School, USA). The generation of the two cell lines from human neck adipose tissue biopsies and immortalization was performed as previously described but from a different donor. Cells were cultured in high glucose DMEM supplemented with 10% FBS and antibiotics. Two days after reaching confluence, cells were treated with 30 μM biotin, 500 nM insulin, 17 μM pantothenate, 100 nM dexamethasone, 2 nM 3,3′,5-Triiodo-L-thyronine, 500 μM IBMX, 30 μM indomethacin and 1 μM rosiglitazone, for 12 days. Afterwards, cells were treated with 30 μM biotin, 500 nM insulin, 17 μM pantothenate and 2 nM 3,3′,5-Triiodo-L-thyronine (Maintenance media) for 2 days with end-point assays performed on day 18, and for 5 days with end-point assays performed on day 21, for the brown and white adipocytes cells, respectively.
Mouse RNA levels were measured by qPCR according to known methods. Data were normalized to B2m and Tbp reference genes. Human RNA was extracted using an RNA Mini Plus kit (Zymo) and gene expression determined by Taqman assay. The 1-step qPCR was run on a QuantStudio 12K Flex Real Time PCR System (ThermoFisher) using the following protocol: 50° C. for 5 minutes, 95° C. for 20 seconds, 40 cycles of 95° C. for 15 seconds and 60° C. for 60 seconds. […]

[2] = tested on: brown adipocytes; experiment: Lipolysis assay in brown adipocytes; type: cell-based, mouse; settings: immortalized brown adipocytes, 10 μM overnight
Method: Lipolysis was assessed in cultured cells using medium collected over 3 h with the Adipolysis assay kit (AB100, Millipore), according to the manufacturer's protocol.

[3] = tested on: AKAP1mut cells; experiment: Gene expression in AKAP1mut and AKAP1wt brown adipocyte cell lines; type: cell-based, mouse; settings: 10 μM
Method: RNA levels were measured by qPCR according to known methods. Briefly, RNA was extracted with TRIzol (Invitrogen) and reverse transcribed with iScript (Bio-Rad). Real-time PCR analysis was performed with a CFX Connect (Bio-Rad).
Two gRNAs were selected using sgRNA Designer from the Broad Institute (gRNA1: […] (SEQ ID NO: 46) and gRNA2: […] (SEQ ID NO: 47)). Cloning was performed using pSpCas9 (BB)-2A-puro (PX459) V2.0 vector (Addgene plasmid #62988). Plasmid construction was confirmed by sequencing. A puromycin-sensitive brown adipocyte cell line was transfected with the two plasmids and selected with […] puromycin. Single-cell cloning was performed in a 96-well plate and clones selected by Western blot to detect AKAP1 protein knockdown, and confirmed by sequencing after PCR amplification (PCR primers: […] (SEQ ID NO: 48) and […] (SEQ ID NO: 49)).
To further assess the requirement of AKAP1 to mediate the effects of Z160, AKAP1 was inactivated in an immortalized brown adipocyte cell line (AKAP1wt) using CRISPR/Cas9 gene editing. One clone (AKAP1mut) was selected based on very low AKAP1 protein levels (FIG. 10A).

[4] = tested on: electron transport chain protein complexes; experiment: Western blot of electron transport chain protein complexes in isolated mitochondria; type: cell-based, mouse; settings: overnight 10 μM
Method: Cells and tissues were lysed in 10 mM Tris pH 7.5, 10 mM NaCl, 1 mM EDTA and 0.5% Triton X-100, supplemented with complete mini EDTA-free protease (Roche Diagnostics) and phosphatase (Cocktail 2 and 3, Sigma) inhibitors, followed by 10 second sonication. For analysis of mitochondrial proteins, mitochondria were isolated from cells by dual centrifugation, as described. Protein lysates were separated by SDS-PAGE and transferred to a nitrocellulose membrane. Transfer was confirmed by Ponceau staining (P7170, Sigma). After blocking in 5% milk, 0.1% Tween-20 in Tris-buffered saline (TBS), primary antibody was incubated overnight at 4° C. in 5% bovine serum albumin and 0.1% Tween-20 in TBS. Primary antibodies against ACTB (GTX109639, GeneTex), AKAP1 (5203, Cell Signaling), AKAP6 (07-087, Millipore), Cytochrome c (136F3, Cell Signaling), electron transport chain protein complexes (Total OXPHOS rodent WB antibody cocktail ab110413, Abcam), GAPDH (GTX100118, Genetex), active p38 MAPK (V1211, Promega), total p38 MAPK (8690, Cell Signaling), PGC1α (AB3242, Millipore), phospho-(Ser/Thr) PKA substrate (9621, Cell Signaling), PKA C-α (4782, Cell Signaling), PKA RII-β (ab75993, Abcam), and UCP1 (662045, Calbiochem) were used at 1:2000. […] Quantification using representative bands from the Ponceau staining was performed with ImageJ.

[5] = tested on: human white adipocyte cell line; experiment: Cellular respiration in human white adipocytes; type: cell-based; settings: 10 μM for 4 days
Method: as §1, with “Afterwards, cells were treated with 30 μM biotin, 500 nM insulin, 17 μM pantothenate and 2 nM 3,3′,5-Triiodo-L-thyronine (Maintenance media) for 2 days with end-point assays performed on day 18, and for 5 days with end-point assays performed on day 21, for the brown and white adipocytes cells, respectively.” left out
Cellular respiration was measured using a Seahorse XF24 or XF96 analyzer (Agilent) following known protocols Immortalized brown adipocytes were differentiated in 6-well plates and replated in the Seahorse XF24 plates at a density of 50,000 cells per well using trypsin and collagenase type II. […] Oxygen consumption rates were measured before and after the sequential injection of 1 μM oligomycin, 1 μM FCCP, and 0.5 μM rotenone/antimycin A. For these cells, results were normalized to cell count determined by nuclei fluorescent staining with Hoescht staining imaged on Cytation 5 Imaging Reader and analysis with Gen5 software (BioTek). […] Maximal respiration was determined after FCCP injection.

For `COc1ccc(NC(=O)CSc2nc3ccccc3c(=O)[nH]2)c(OC)c1` [Z160], the CIDEA expression [1] was “increased expression”, the UCP1 expression [1] was about 7 fold and the lipolysis [2] was “induced lipolysis”. For the same compound, the “induced expression of Hoxa5, Cidea, Elovl3, Acox1 and Cpt1b in AKAP1mut” value ([3]; AKAP1mut vs AKAP1wt) was “blunted or reduced”, the “Ucp1 expression response in AKAP1mut cells” value ([3]; AKAP1mut) was “did not respond” and the Ppargc1a expression ([3]; both AKAP1wt and AKAP1mut cells) was “increased”. The “mitochondrial complex protein abundance” value [4] was “slight enhancement”, the maximal respiration [5] was “increased” and the “mitochondrial respiration (uncoupled)” value [5] was “increased”.
